Common to all, as to format: cell-based
Assay [1] concerns the target T1, hGIPR (Homo sapiens, UniProt P48546).
T1 sequence (P48546 22-466): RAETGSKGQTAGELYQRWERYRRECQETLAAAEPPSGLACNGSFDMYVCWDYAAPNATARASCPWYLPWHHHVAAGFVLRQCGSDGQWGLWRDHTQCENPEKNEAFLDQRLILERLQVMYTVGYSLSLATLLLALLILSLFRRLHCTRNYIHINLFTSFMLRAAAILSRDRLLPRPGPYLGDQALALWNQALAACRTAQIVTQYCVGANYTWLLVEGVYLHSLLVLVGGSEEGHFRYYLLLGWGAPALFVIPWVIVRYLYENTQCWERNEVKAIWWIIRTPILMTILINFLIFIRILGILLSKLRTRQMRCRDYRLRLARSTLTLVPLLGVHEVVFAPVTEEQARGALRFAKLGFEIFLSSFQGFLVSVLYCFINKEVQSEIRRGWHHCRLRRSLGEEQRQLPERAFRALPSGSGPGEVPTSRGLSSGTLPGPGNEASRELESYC
In words: Functional cAMP activity in the presence of 1% HSA. As to conditions: read-out: cAMP Rel EC50, hGIPR.

Assay [2] has as its target T2, hGLP-1R (Homo sapiens, UniProt P43220). The experiment in a line: Functional cAMP activity in the presence of 1% HSA. As to conditions: read-out: cAMP Rel EC50, hGLP-1R.
The target in a further assay is human GcgR (Homo sapiens, UniProt P47871). The experiment in a line: Functional cAMP activity in the presence of 1% HSA. As to conditions: read-out: cAMP Rel EC50, hGcgR.
In assay [3] the target is T1, hGIPR. The experiment in a line: Functional cAMP activation in the presence of 0.1% casein (no HSA). As to conditions: read-out: Relative cAMP EC50, hGIPR.
The target in assay [4] is T2, hGLP-1R. Described as above. As to conditions: read-out: Relative cAMP EC50, hGLP-1R.
The target of a further assay is hGcgR (Homo sapiens, UniProt P47871). The assay is described as above. As to conditions: read-out: Relative cAMP EC50, hGcgR.
[5] abbreviates: in the presence of 0.1% casein (no HSA), geometric mean.

The values that follow come from patent publication US20240270821A1, “GIP/GLP1/GCG TRI-RECEPTOR AGONISTS AND USES THEREOF” (priority 2023, published 2024).

Where two headings read alike, the source gives them in different places. Starred links: 1 amine or outer side, 2 acyl side, 3 side chain; linkers in the order of their positions; H or OH if unused. Non-standard residues stand in square brackets, D forms with d. Residues, ends and D or L forms follow the SMILES beside them. Groups on a side chain read outwards from the residue. No end group written: not given here. *: point of attachment. C20 diacid = O=C(O)CCCCCCCCCCCCCCCCCCC(=O)*; C18 diacid = O=C(O)CCCCCCCCCCCCCCCCC(=O)*; αMePhe(2-F) = C[C@](N)(Cc1ccccc1F)C(=O)O; γGlu = O=C(O)[C@H](CCC(=O)[*:2])N[*:1]; αMe4Pal = C[C@](N)(Cc1ccncc1)C(=O)O; αMeY = C[C@](N)(Cc1ccc(O)cc1)C(=O)O; αMeF = C[C@](N)(Cc1ccccc1)C(=O)O; 4Pal = N[C@@H](Cc1ccncc1)C(=O)O; αMeL = CC(C)C[C@](C)(N)C(=O)O; αMeS = C[C@](N)(CO)C(=O)O; Orn = NCCC[C@H](N)C(=O)O; AEEA = NCCOCCOCC(=O)O; Aib = CC(C)(N)C(=O)O

A word on the EC50: it is the concentration at which the effect is half-maximal.
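Wherever Relative cAMP EC50, hGIPR is given: intracellular cAMP rise after 30 min at 37 °C read by HTRF against a standard curve, scaled between buffer alone (0%) and top control ligand concentration (100%), four-parameter fit.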
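Wherever Relative cAMP EC50, hGLP-1R is given: intracellular cAMP rise after 30 min at 37 °C read by HTRF, normalized between buffer only (0%) and maximal control ligand (100%), four-parameter variable-slope fit.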
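Wherever Relative cAMP EC50, hGcgR is given: intracellular cAMP rise after 30 min at 37 °C, read by HTRF against a cAMP standard curve, scaled from buffer only (0%) to maximal control ligand response (100%).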

Sequence of human GcgR (P47871 26-477): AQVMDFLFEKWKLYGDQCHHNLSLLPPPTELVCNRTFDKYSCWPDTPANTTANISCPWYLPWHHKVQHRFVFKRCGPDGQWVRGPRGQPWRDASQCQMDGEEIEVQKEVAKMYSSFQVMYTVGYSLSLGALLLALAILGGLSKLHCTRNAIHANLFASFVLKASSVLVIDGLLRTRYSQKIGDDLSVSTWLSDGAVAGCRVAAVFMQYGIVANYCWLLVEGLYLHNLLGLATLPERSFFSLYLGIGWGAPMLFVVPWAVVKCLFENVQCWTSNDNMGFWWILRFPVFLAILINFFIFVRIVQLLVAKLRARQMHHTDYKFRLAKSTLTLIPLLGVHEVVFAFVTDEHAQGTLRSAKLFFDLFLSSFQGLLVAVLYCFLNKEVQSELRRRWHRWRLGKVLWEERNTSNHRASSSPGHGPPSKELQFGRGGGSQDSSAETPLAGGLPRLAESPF
Sequence of hGcgR (P47871 26-477): as above
T2 sequence (P43220 24-463): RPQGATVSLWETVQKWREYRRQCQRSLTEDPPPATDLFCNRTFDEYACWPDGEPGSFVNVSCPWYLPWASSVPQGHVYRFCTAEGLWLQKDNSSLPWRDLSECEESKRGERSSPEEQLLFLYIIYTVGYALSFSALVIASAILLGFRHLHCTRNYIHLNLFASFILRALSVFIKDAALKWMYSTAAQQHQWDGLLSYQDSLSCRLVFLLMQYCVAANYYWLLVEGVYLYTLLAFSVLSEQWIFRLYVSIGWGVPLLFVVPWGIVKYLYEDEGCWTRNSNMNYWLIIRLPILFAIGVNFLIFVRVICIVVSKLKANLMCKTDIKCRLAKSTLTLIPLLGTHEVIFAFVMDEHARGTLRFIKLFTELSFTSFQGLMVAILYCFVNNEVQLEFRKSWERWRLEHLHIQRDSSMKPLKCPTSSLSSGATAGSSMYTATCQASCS

On to “H-Y[Aib]QGT[αMePhe(2-F)]TSD[4Pal]SILLDKK([γGlu-γGlu-C18 diacid])AQ[Aib]AFIEYLEEGGPSSGAPPPSGGEE-NH2 [Example 612]”, for which the EC50 at hGIPR [1] stood at 7.58 nM; at hGLP-1R [2], 126 nM; on human GcgR it was 640 nM; at hGIPR [3] it was 0.087 nM; on hGLP-1R [4], 1.21 nM; on hGcgR it was 7.13 nM.

For “H-Y[Aib]QGTFTSD[4Pal]SQ[αMeL]LDKK([AEEA-γGlu-C18 diacid])AQ[αMe4Pal]AFIE[αMe4Pal]LIE[Aib]GPSSGAPPPSGTGE-NH2 [Example 1117]”, the concentration giving a half-maximal response (EC50) at hGIPR [1] was found to be 8.31 nM; on hGLP-1R [2], 237 nM; at human GcgR, 355 nM; at hGIPR [3] (setting [5]) it was 0.124 nM; at hGLP-1R [4] (setting [5]), 3.51 nM; on hGcgR (setting [5]), 4.93 nM.

Regarding “H-Y[Aib]QGT[αMePhe(2-F)]TSD[4Pal][αMeS]I[αMeL]LD[Orn]K([γGlu-γGlu-C18 diacid])AQ[Aib][Orn]FI[dE]YLSEGGPSSGEPPPSGTE-NH2 [Example 530]”, the concentration giving a half-maximal response (EC50) on hGIPR [1] is 63.7 nM; on hGLP-1R [2], 437 nM; on human GcgR it was 1280 nM; on hGIPR [3], 0.874 nM; at hGLP-1R [4], 4.91 nM; at hGcgR it was 17.1 nM.

Regarding “H-Y[Aib]QGTFTSDFS[Orn][αMeL]LDKK([AEEA-γGlu-C18 diacid])AQ[Aib]AFIEWLLEGGHSSGAPPPSGH-NH2 [Example 269]”, the EC50 was 21.9 nM on hGIPR [1]; 428 nM at hGLP-1R [2]; 1100 nM at human GcgR; 0.288 nM at hGIPR [3] (setting [5]); 3.23 nM at hGLP-1R [4] (setting [5]); 7.69 nM on hGcgR (setting [5]).

“H-Y[Aib]QGT[αMePhe(2-F)]TSDYSILLDKQAQK([AEEA-AEEA-γGlu-C20 diacid])AFIEYLLEGGPSSGEPPPSEG-NH2 [Example 345]”: the EC50 at hGIPR [1] amounted to 15.3 nM; on hGLP-1R [2], 256 nM; on human GcgR, 3300 nM; on hGIPR [3] (setting [5]) it was 0.0377 nM; at hGLP-1R [4] (setting [5]), 0.658 nM; on hGcgR (setting [5]), 11.3 nM.

For `CC[C@H](C)[C@H](NC(=O)[C@H](Cc1ccccc1)NC(=O)[C@H](C)NC(=O)C(C)(C)NC(=O)[C@H](CCC(N)=O)NC(=O)[C@H](C)NC(=O)[C@H](CCCCNC(=O)COCCOCCNC(=O)CC[C@H](NC(=O)CCCCCCCCCCCCCCCCC(=O)O)C(=O)O)NC(=O)[C@H](CCCN)NC(=O)[C@H](CC(=O)O)NC(=O)[C@H](CC(C)C)NC(=O)[C@](C)(CC(C)C)NC(=O)[C@@H](NC(=O)[C@](C)(CO)NC(=O)[C@H](Cc1ccc(O)cc1)NC(=O)[C@H](CC(=O)O)NC(=O)[C@H](CO)NC(=O)[C@@H](NC(=O)[C@](C)(Cc1ccccc1)NC(=O)[C@@H](NC(=O)CNC(=O)[C@H](CCC(N)=O)NC(=O)C(C)(C)NC(=O)[C@@H](N)Cc1ccc(O)cc1)[C@@H](C)O)[C@@H](C)O)[C@@H](C)CC)C(=O)N[C@H](CCC(=O)O)C(=O)N[C@@H](Cc1ccc(O)cc1)C(=O)N[C@@H](CC(C)C)C(=O)N[C@@H](CC(C)C)C(=O)N[C@@H](CCC(=O)O)C(=O)NCC(=O)NCC(=O)N1CCC[C@H]1C(=O)N[C@@H](CO)C(=O)N[C@@H](CO)C(=O)NCC(=O)N[C@@H](CCC(=O)O)C(=O)N1CCC[C@H]1C(=O)N1CCC[C@H]1C(=O)N1CCC[C@H]1C(=O)N[C@@H](CCC(=O)O)C(N)=O` [Example 420] (H-Y[Aib]QGT[αMeF]TSDY[αMeS]I[αMeL]LD[Orn]K([AEEA-γGlu-C18 diacid])AQ[Aib]AFI[dE]YLLEGGPSSGEPPPE-NH2), the EC50 on hGIPR [1] is 2.61 nM; on hGLP-1R [2], 31.3 nM; on human GcgR, 433 nM; at hGIPR [3], 0.0131 nM; on hGLP-1R [4], 0.205 nM; at hGcgR, 2.49 nM.

As to “Y[Aib]QGT[αMePhe(2-F)]TSD[4Pal][αMeS]I[αMeL]LD[Orn]K([γGlu-γGlu-C18 diacid])AA[Aib]EFI[dE][αMeY]LIEGGPSSGEPPPSGGGE-NH2 [Example 748]”, the EC50 on hGIPR [1] is 0.865 nM; on hGLP-1R [2], 22.9 nM; on human GcgR it was 156 nM; at hGIPR [3], 0.0105 nM; on hGLP-1R [4], 0.258 nM; at hGcgR, 1.42 nM.

Consider “H-Y[Aib]QGTFTSD[4Pal]S[Orn][αMeL]LDKK([AEEA-γGlu-γGlu-C18 diacid])AQ[αMe4Pal]AFIEYLIE[Aib]GPSSGAPPPSGS-NH2 [Example 867]”, for which the EC50 at hGIPR [1] came to 16.2 nM; on hGLP-1R [2] it was 474 nM; at human GcgR, 242 nM; on hGIPR [3] (setting [5]) it was 0.216 nM; at hGLP-1R [4] (setting [5]) it was 7.38 nM; at hGcgR (setting [5]), 2.47 nM.

In the case of “H-Y[Aib]QGTFTSDFS[Orn][αMeL]LDKK([AEEA-γGlu-C18 diacid])AQ[Aib]QFIEYLLAGGPSSGAPPPEGS-NH2 [Example 96]”, the half-maximal effective concentration (EC50) is 49.3 nM at hGIPR [1]; 836 nM at hGLP-1R [2]; 2150 nM at human GcgR; 0.456 nM at hGIPR [3] (setting [5]); 3.92 nM on hGLP-1R [4] (setting [5]); 14.1 nM at hGcgR (setting [5]).

With “H-Y[Aib]QGT[αMePhe(2-F)]TSD[4Pal]SILLD[Orn]K([γGlu-γGlu-C18 diacid])AQ[Aib][Orn]FIE[αMeY]LEEGGPSSGAPPPSGTGE-NH2 [Example 674]”, the half-maximal effective concentration (EC50) turned out to be 2.54 nM at hGIPR [1]; 17.3 nM on hGLP-1R [2]; 168 nM on human GcgR; 0.0264 nM at hGIPR [3]; 0.21 nM on hGLP-1R [4]; 2.09 nM on hGcgR.

In the case of `CC[C@H](C)[C@H](NC(=O)[C@H](Cc1ccccc1)NC(=O)[C@H](C)NC(=O)C(C)(C)NC(=O)[C@H](CCC(N)=O)NC(=O)[C@H](C)NC(=O)[C@H](CCCCNC(=O)COCCOCCNC(=O)CC[C@H](NC(=O)CCCCCCCCCCCCCCCCC(=O)O)C(=O)O)NC(=O)[C@H](CCCCN)NC(=O)[C@H](CC(=O)O)NC(=O)[C@H](CC(C)C)NC(=O)[C@](C)(CC(C)C)NC(=O)[C@@H](NC(=O)[C@H](CO)NC(=O)[C@H](Cc1ccncc1)NC(=O)[C@H](CC(=O)O)NC(=O)[C@H](CO)NC(=O)[C@@H](NC(=O)[C@](C)(Cc1ccccc1F)NC(=O)[C@@H](NC(=O)CNC(=O)[C@H](CCC(N)=O)NC(=O)C(C)(C)NC(=O)[C@@H](N)Cc1ccc(O)cc1)[C@@H](C)O)[C@@H](C)O)[C@@H](C)CC)C(=O)N[C@@H](CCC(=O)O)C(=O)N[C@@H](Cc1ccc(O)cc1)C(=O)N[C@@H](CC(C)C)C(=O)N[C@@H](CCC(=O)O)C(=O)N[C@@H](CCC(=O)O)C(=O)NCC(=O)NCC(=O)N1CCC[C@H]1C(=O)N[C@@H](CO)C(=O)N[C@@H](CO)C(=O)NCC(=O)N[C@@H](C)C(=O)N1CCC[C@H]1C(=O)N1CCC[C@H]1C(=O)N1CCC[C@H]1C(=O)N[C@@H](CO)C(N)=O` [Example 422] (H-Y[Aib]QGT[αMePhe(2-F)]TSD[4Pal]SI[αMeL]LDKK([AEEA-γGlu-C18 diacid])AQ[Aib]AFIEYLEEGGPSSGAPPPS-NH2), the EC50 on hGIPR [1] is 4.4 nM; at hGLP-1R [2], 27.1 nM; on human GcgR, 493 nM; on hGIPR [3], 0.0216 nM; on hGLP-1R [4], 0.252 nM; on hGcgR, 14.5 nM.

Consider “H-Y[Aib]QGTFTSD[4Pal]SQ[αMeL]LDKK([γGlu-γGlu-C18 diacid])AQ[αMe4Pal]AFIE[αMe4Pal]LIEGGPSSGAPPPSGS-NH2 [Example 951]”, for which the EC50 is 18.2 nM on hGIPR [1]; 382 nM on hGLP-1R [2]; 657 nM on human GcgR; 0.156 nM on hGIPR [3] (setting [5]); 2.61 nM at hGLP-1R [4] (setting [5]); 5.73 nM at hGcgR (setting [5]).

For “H-Y[Aib]QGTFTSD[4Pal]SQ[αMeL]LDKK([AEEA-γGlu-C18 diacid])AQ[αMe4Pal]AFIEYLIE[Aib]GPSSGAPPPSGSGE-NH2 [Example 888]”, the half-maximal effective concentration (EC50) was 30.8 nM at hGIPR [1]; 238 nM on hGLP-1R [2]; 567 nM on human GcgR; 0.168 nM on hGIPR [3] (setting [5]); 5.02 nM at hGLP-1R [4] (setting [5]); 30.1 nM on hGcgR (setting [5]).

As to “H-Y[Aib]QGTFTSD[4Pal]SQ[αMeL]LDKK([AEEA-γGlu-C18 diacid])AQ[αMe4Pal]AFIE[αMe4Pal]LIE[Aib]GPSSGAPPPSGTE-NH2 [Example 1116]”, the EC50 at hGIPR [1] was found to be 10.8 nM; at hGLP-1R [2], 198 nM; on human GcgR, 364 nM; on hGIPR [3] (setting [5]) it was 0.134 nM; at hGLP-1R [4] (setting [5]), 4.63 nM; at hGcgR (setting [5]) it was 8.2 nM.
